Experimental data as given in patent US20250213593A1, “Use of Derivatives based on Sarsasapogenin Structure and Pharmaceutical Compositions thereof” (BEIJING PHYTOVENT PHARMACEUTICAL TECHNOLOGY CO., LTD., priority 2022, published 2025).
Like-named read-outs stand apart in the source and are kept apart here.

What was measured:
[1] = tested on: U937 (histiocytic lymphoma cells); assay: Cell proliferation assay, U937; format: cell-based; settings: Homo sapiens, U-937, 72 h
Procedure: (§1) • Experimental and analytical method: cells were inoculated into a 96-well cell culture plate with a lid at a maximum concentration of 10 μM for a test compound, and diluted in three folds to a series of test concentrations, and cells were incubated at 37° C., 5% CO2 for 72 h. The concentration of DMSO was 0.5%, 100 μl of medium was taken from each well. 100 μl of reagent (Celltitute Glo Assay Kit) was added to each well, and a flat plate was shaken on a plate shaker (protected from light) for 2 min. A culture plate was incubated (protected from light) at room temperature for 30 min. Chemiluminescence values were recorded by a multi-plate plate reader, and the experimental results were as follows:
(§2) U937 (histiocytic lymphoma cells), OCI-LY3 (human diffuse large B-cell lymphoma cells), U2932 (human diffuse large B-cell lymphoma cells), and HT cells (human mixed lymphoma cells) were analyzed in the table for experimental analysis of cell proliferation.

[2] = tested on: OCI-LY3 (human diffuse large B-cell lymphoma cells); assay: Cell proliferation assay, OCI-LY3; format: cell-based; settings: for IC50: Homo sapiens, OCI-Ly3, 72 h
Procedure: as §1, §2

[3] = tested on: U2932 (human diffuse large B-cell lymphoma cells); assay: Cell proliferation assay, U2932; format: cell-based; settings: U2932, 72 h
Procedure: as §1, §2

hippocampal neurons = assay: L-cysteine-induced neuronal excitotoxicity; format: cell-based, SD rats; settings: compound 1 μM, 24 h before inducer
Procedure: Experimental and analytical method: before the experiment, a 24-well cell culture plate was pretreated with Poly-D-lysine and placed in a cell incubator at 37° C. and 5% CO2 overnight. SD rats, 18 days pregnant, were ordered, brains of fetal rats (E18-19) were dissected, and hippocampal neurons in the brains were subjected to primary culture in a neuronal medium using a 24-well plate, and then cultured by a serum-free medium. The hippocampal neurons were cultured in a cell incubator at 37° C., 5% CO2 for 19 days (DIV19), then added with a compound to be tested (a final concentration of 1 μM) and a positive control AP5 [(2R)-amino-5-phosphonopentanoic acid(phosphonatopentanoate)] (a final concentration of 100 μM), cultured for 24 h, and then added with L-Cystine (400 μM) and NaHCO3 (10 mM). After 18 h, Hoechst3342 (2.5 μg/ml) was added for cell staining. The cells were placed in the incubator and cultured for 15 min, and photographed using the high-content fluorescence microscope, wherein 6 random non-overlapping fields were photographed for each duplicate well, and the total number of neurons and the number of dead neurons were counted with software Image J. The obtained data was used to determine whether there was a difference between a drug treatment group and a control group.
Compound treatment: 32 small molecule compounds in Embodiment 1 to Embodiment 19A were diluted with DMSO to a 1 mM mother solution; and 1 μL of mother solution was added to 1 ml of culture solution per well in a 24-well plate to a final concentration of 1 μM, wherein a positive control compound was […] of AP5 (100 mM mother solution), and a negative control was 1 μl of DMSO.

[4] = tested on: human SHSY5Y neural tumor cells; assay: H2O2-induced oxidative damage of SHSY5Y cells (MTT); format: cell-based; settings: 1 μM, pre-protected 24 h, 250 μM H2O2 24 h
male SD rats, TBI model = assay: Acute traumatic brain injury (TBI) rat model; format: in vivo; settings: 80 mpk once a day, 7 days; vs solvent control (P<0.05)
Procedure: • Experimental and analytical method: male SD rats were used in this experiment to establish a TBI rat model, which was randomly divided into: a solvent control group (8 rats), a test product Embodiment 13B (80 mpk, 10 rats), and a test product Embodiment 26 (80 mpk, 9 rats). After TBI surgery, drugs were administered by gavage once a day for 7 consecutive days.

[5] = tested on: HT cells (human mixed lymphoma cells); assay: Cell proliferation assay, HT; format: cell-based
Procedure: as §1, §2

[6] = tested on: Raji-Luc hematologic tumor cells in NOD-Scid immunodeficient mice; assay: NOD-Scid mice inoculated with hematologic tumor cells Raji-Luc; settings: 100 mpk by gavage once a day
[7] = tested on: Lepr gene mutant (DB) mice; assay: Blood glucose of DB mice; format: in vivo, mouse; settings: 80 mpk by gavage once a day, from 8 to 20 weeks of age
Source text: • Experimental and analytical method: leptin receptor gene (OB-R) was also known as diabetes gene (db), leptin receptor (Lepr) is closely related to obesity, hypertension, diabetes, lipid metabolism disorders, etc. The courses of these diseases are greatly influenced by the genetic background. Topical insulin can not control the increase in blood glucose and gluconeogenesis levels in the liver. Gene editing technologies and embryo injection technologies were used to construct Lepr gene mutant mice. […] The blood glucose in each mouse of this strain began to rise sharply at 8 weeks of age, reaching 30 mmol/L, while the blood glucose of the normal background was only about 6 mmol/L. We started drug delivery from 8 weeks of age. Test small molecules were Embodiment 28, Embodiment 29 and Embodiment 30, all of which were at a dosage of 80 mpk, and delivered by gavage once a day.

ICR mice = assay: Sleep of mice at subthreshold hypnotic dosage of sodium pentobarbital; format: in vivo, mouse; settings: Diazepam 1 mg/kg; vs blank control
Procedure: After adaptive feeding of mice, 50 qualified animals were selected according to their body weights and divided into 5 groups by Excel complete randomization: a blank control group, a positive control group (Diazepam), and high-, medium- and low-dosage groups of test product, with 10 animals in each group. Animals in each group should be administrated with drug solutions and vehicles. After 1 h of administration, the animals in each group were intraperitoneally injected with a maximum subthreshold dosage of sodium pentobarbital (firstly, a pre-experiment was conducted to determine a maximum subthreshold hypnotic dosage of sodium pentobarbital).

What does the source list for `C[C@H]1CC[C@@]2(OC1)O[C@H]1C[C@H]3[C@@H]4CC[C@@H]5CC(NC(=O)CCN6CCN(CCN(C)C)CC6)CC[C@]5(C)[C@H]4CC[C@]3(C)[C@H]1[C@@H]2C` (stereo partly shown) [Embodiment 13]?
IC50 ([1]; low sugar, read-out: U937 (IC50, uM) Low sugar): 2.28 µM; IC50 ([1]; normal sugar, read-out: U937 (IC50, uM) Normal sugar): 4.04 µM; IC50 [2]: 4.4 µM; IC50 [3]: 1.19 µM; protective effects on L-Cystine (400 μM)-induced neuronal excitotoxicity (hippocampal neurons): protective effects; protection of H2O2-induced neural tumor cell damages [4]: significantly protected

What does the source list for `C[C@H]1CC[C@@]2(OC1)O[C@H]1C[C@H]3[C@@H]4CC[C@@H]5CC(NC(=O)CC(=O)N6CCN(C7CCN(C)CC7)CC6)CC[C@]5(C)C4CC[C@]3(C)[C@H]1[C@@H]2C` (stereo partly shown) [Embodiment 26]?
early brain apoptosis rates (male SD rats, TBI model): significantly lower; total apoptosis rates (male SD rats, TBI model): significantly lower

What does the source list for `C[C@H]1CC[C@@]2(OC1)O[C@H]1C[C@H]3[C@@H]4CC[C@@H]5C[C@@H](NC(=O)CC(=O)N6CCN(CCN(C)C)CC6)CC[C@]5(C)C4CC[C@]3(C)[C@H]1[C@@H]2C` (stereo partly shown) [Embodiment 13A]?
IC50 [2]: 1.78 µM; inhibitory effect on the proliferation of OCI-LY3 cell line (comparison in words) ([2]; among compounds of Table 13): best inhibitory effect; IC50 [3]: 0.43 µM; IC50 ([5]; Homo sapiens, HT, 72 h): 1.51 µM; inhibitory effect on the proliferation of HT cells (comparison in words) ([5]; among compounds of Table 13): best inhibitory effect

How did the “tumor killing effect (in-vivo fluorescence intensity)” value [6] turn out when `C[C@H]1CC[C@@]2(OC1)O[C@H]1C[C@H]3[C@@H]4CC[C@@H]5CC(NC(=O)CC(=O)N6CCN(CCn7ccnc7)CC6)CC[C@]5(C)C4CC[C@]3(C)[C@H]1[C@@H]2C` (stereo partly shown) [Embodiment 40] was run?
Its value is “relatively good tumor killing effects”.

For `C[C@H]1CC[C@@]2(OC1)O[C@H]1C[C@H]3[C@@H]4CC[C@@H]5CC(NC(=O)CC(=O)N6CCC(N7CCN(CC#N)CC7)CC6)CC[C@]5(C)C4CC[C@]3(C)[C@H]1[C@@H]2C` (stereo partly shown) [Embodiment 30], which blood glucose [7] is on record?
The blood glucose was “best blood glucose-reducing effect and could reach the level of normal background mice”.

With `COC(=O)N1CCN(C(=O)CC(=O)NC2CC[C@]3(C)C4CC[C@]5(C)[C@@H]6[C@H](C[C@H]5[C@@H]4CC[C@@H]3C2)O[C@]2(CC[C@H](C)CO2)[C@H]6C)CC1` (stereo partly shown) [Embodiment 28] as the compound, how does the blood glucose [7] read?
The blood glucose was “certain blood glucose-reducing effects”.

With `CN1C(=O)CN=C(c2ccccc2)c2cc(Cl)ccc21` [Diazepam, reference compound] as the compound, how does the sleep latency (ICR mice) read?
The sleep latency was “significantly shortened”.

And the sleep time (ICR mice)?
Its sleep time is “significantly prolonged”.

What does the source list for `C[C@H]1CC[C@@]2(OC1)O[C@H]1C[C@H]3[C@@H]4CC[C@@H]5CC(NC(=O)C6CCN(C)CC6)CC[C@]5(C)[C@H]4CC[C@]3(C)[C@H]1[C@@H]2C` (stereo partly shown) [Embodiment 2]?
protective effects on L-Cystine (400 μM)-induced neuronal excitotoxicity (hippocampal neurons): protective effects; protection of H2O2-induced neural tumor cell damages [4]: significantly protected

`C[C@H]1CC[C@@]2(OC1)O[C@H]1C[C@H]3[C@@H]4CC[C@@H]5CC(NC(=O)CC(=O)N6CCCN(CCN(C)C)CC6)CC[C@]5(C)C4CC[C@]3(C)[C@H]1[C@@H]2C` (stereo partly shown) [Embodiment 39] was tested. Which “tumor killing effect (in-vivo fluorescence intensity)” value [6] did it give?
Its value is “relatively good tumor killing effects”.

`CCN1CCC(N2CCN(C(=O)CC(=O)NC3CC[C@]4(C)C5CC[C@]6(C)[C@@H]7[C@H](C[C@H]6[C@@H]5CC[C@@H]4C3)O[C@]3(CC[C@H](C)CO3)[C@H]7C)CC2)CC1` (stereo partly shown) [Embodiment 29] was tested. Which blood glucose [7] did it give?
Its blood glucose is “certain blood glucose-reducing effects”.
